The values that follow come from patent US5166219A, “Systemic anti-inflammatory treatment” (Lidak Pharmaceuticals, priority 1991, dated 1992).

Experiment [1] has as its system LP-BM 5 MuLV ecotropic virus. The experiment in a line: Percent virus inhibition / plaque count of LP-BM 5 MuLV ecotropic virus using XC indicator cells. The class given is cell-based. As to conditions: for inhibition at 0.5 µg/mL / inhibition at 5 µg/mL / inhibition at 50 µg/mL / inhibition at 500 µg/mL: read-out: % decrease. How it is done: A composition a composition consisting essentially of aliphatic alcohols having 22 carbons in the aliphatic chain in micelle suspension, […], was introduced into cultures of LP-BM 5 MuLV ecotropic virus, […], and the percent of virus inhibition, as compared with controls continuing only PBS buffer, indicated by cell-fusion activity and cell plaque count, using XC indicator cells (Virology 42:1136, 1970), was determined.
The effect of the C-20 to C-26 alcohols of this invention on ecotropic virus was further confirmed and compared with AZT.

For experiment [2], the system named is collagen-induced arthritis. The experiment can be described thus: Treatment of collagen-induced arthritis (CIA) in DBA/1 mice. The class given is in vivo. The procedure:
DBA/1 mice were injected intradermally at the base of the tail on days zero and 28 with 20 μg chick type II collagen emulsified in CFA. The mammals were followed for clinical signs of arthritis, i.e., joint erythema, edema, and loss of function. The data illustrated in FIG. 1 were derived from a series of 5 independently conducted experiments which show the clinical course of collagen-induced arthritis (CIA) in DBA/1 mice immunized with chick type II collagen/CFA. Male DBA/1 mice were immunized with 20 μg chick type Ii collagen emulsified in CFA on days zero and 28. The mammals were followed for a total of 70 days for clinical signs of arthritis, joint erythema, edema, and loss of function. That data represent the means and standard deviations of incidence of arthritis and spontaneous remission from 5 separate experiments using 10-15 mice per experiment. p As noted by others, Stuart, J. M., Townes, A. S., and Knag, A. H., Ann. Rev. Immunol. […] Histologic analysis (not shown) confirmed extensive mononuclear infiltration and pannus formation as reported by others using similar techniques, Wooley, P. H., Luthra, H. S., Stuart, J. M., and David, C. S., J. Exp. Med. 154:688-700, 1981. […] We used a four point scoring system where zero is a normal limb, 1 being marginal swelling and erythema, 2 being progressively more severe swelling, erythema, and lack of flexibility, and 3 being severe erythema, edema, and often complete fusion of the bone elements and lack of flexibility. […] S., J. Exp. Med. 154:688-700, 1981.
Male DBA/1 (obtained from Jackson Laboratories, Bar Harbor, Me.) were used at 8 to 12 weeks of age. The mice were immunized intradermally at the base of the tail on day zero and again on day 28 with 20 μg chick type II collagen, prepared exactly as described by others, Trentham, D. E., Townes, A. S., and Kang, A. H., J. Exp. Med. 146:857-858, 1977, or obtained commercially (Genzyme, Boston, Ma.), emulsified in complete Freund's adjuvant (Difco, Ann Arbor, Mi.). The mammals were examined visually twice weekly for arthritic signs, swollen and erythremic limbs. Induction of CIA-associated histopathology was assessed by evaluation of paraffin sections of normal limbs, and limbs obtained from mammals with various stages of the disease essentially as described by others, Wooley, P. H., Luthra, H. S., Stuart, J. M., and David, C. S., J. Exp. Med 154:688-700, 1981.
n-Docosanol was suspended in Pluronic F68® (Trademark of BASF Corp; chemical composition, poloxamer 188, a non-ionic detergent block co-polymer of propylene oxide and ethylene oxide) as follows: Pluronic F-68 (mw 8,400; BASF Corp., Parsippany, N.J.) was diluted to 10 mg/ml in warm (37° C.) Dulbecco's high glucose modified Eagle's medium (DMEM; Whittaker Bioproducts, Walkersville, Md.), and the solution then heated to 50° C. n-Docosanol was added at 10 mg/ml to the Pluronic F-68 in DMEM and the solution further heated to 86° C. wile sonicating (Branson 450 sonifier) for 21 minutes at an initial output of 65 watts. The resulting stock suspension contained 10 mg/ml of n-docosanol particles of 0.03-0.3 microns. The corresponding control solution was prepared identically except the n-docosanol was excluded.
Adult DBA/1 mice were immunized with collagen/CFA as described in […], and on day 44 after primary immunization the mammals were given a clinical score and placed in one of three groups. […] One group was treated once daily with 5 mg of n-docosanol as indicated in FIG. 3 (0.5 ml of 10 mg/ml n-docosanol in 10 mg/ml Pluronic F-68), half of which was given intravenously and the other half given subcutaneously. Another group was treated with 5 mg Pluronic F-68 control in a similar manner. The last group was left untreated.
The effects of n-docosanol on CIA in DBA/1 Mice are depicted in FIG. 3. Adult DBA/1 male mice were immunized with collagen/CFA as described in the legend to FIG. 2. […]

Experiment [3] relates to physical performance of athletes. As to conditions: vegetable oil bases, oral ingestion; U.S. Pat. No. 3,031,376; cited from earlier work.
In experiment [4] the test system is inflammatory disorders. The following applies: Clark, U.S. Pat. No. 4,670,471; cited from earlier work.
The test system of experiment [5] is growth of plants. As to conditions: Ries et al. and others; cited from earlier work.

SMILES strings stand for the structures. Read-outs that look alike come from different tables or passages of the source.

As for `CCCCCCCCCCCCCCCCCCCCCCO` [C-22 Alcohol, n-docosanol], the Plaques/culture in experiment [1] (0.5 μg/ml, 10^2 input) is 110 ± 2 Plaques/culture; in experiment [1] (0.5 μg/ml, 10^3 input), 703 ± 88 Plaques/culture; in experiment [1] (5 μg/ml, 10^2 input) it was 84 ± 12 Plaques/culture; in experiment [1] (5 μg/ml, 10^3 input), 561 ± 50 Plaques/culture; in experiment [1] (50 μg/ml, 10^2 input), 72 ± 24 Plaques/culture; in experiment [1] (50 μg/ml, 10^3 input), 562 ± 11 Plaques/culture. The Plaques/culture in experiment [1] (500 μg/ml, 10^2 input) is listed as 13 ± 2 Plaques/culture; in experiment [1] (500 μg/ml, 10^3 input) it was 401 ± 5 Plaques/culture. Also, the inhibition at 0.5 µg/mL in experiment [1] (0.5 μg/ml, 10^2 input) worked out at 19%; in experiment [1] (0.5 μg/ml, 10^3 input), 14%. In addition, the inhibition at 5 µg/mL in experiment [1] (5 μg/ml, 10^2 input) was 36%; in experiment [1] (5 μg/ml, 10^3 input) it was 31%. For the same compound, the inhibition at 50 µg/mL in experiment [1] (50 μg/ml, 10^2 input) worked out at 45%; in experiment [1] (50 μg/ml, 10^3 input), 31%. Also, the inhibition at 500 µg/mL in experiment [1] (500 μg/ml, 10^2 input) came out at 90%; in experiment [1] (500 μg/ml, 10^3 input), 51%. The compound also showed an inhibition at 0.06 µg/mL in experiment [1] (C-22 alcohol 0.06 μg/ml, 100 PFU/ml (10^2 input)) of 7%. For the same compound, the inhibition at 0.6 µg/mL in experiment [1] (C-22 alcohol 0.6 μg/ml, 100 PFU/ml (10^2 input)) is 22%. In experiment [1] (C-22 alcohol 6 μg/ml, 100 PFU/ml (10^2 input)), the inhibition at 6 µg/mL is 40%. The compound also returned an inhibition at 60 µg/mL in experiment [1] (C-22 alcohol 60 μg/ml, 100 PFU/ml (10^2 input)) of 89%. Besides, the mean clinical score result is given as “significant decrease in mean clinical score” in experiment [2] (24 hours after the first treatment, vs untreated or control-treated, 5 mg once daily, half i.v., half s.c.); “another significant decrease in mean clinical score” in experiment [2] (after further regimen of 3 treatments (days 50-52)); “a rise in mean clinical score” in experiment [2] (day 49, 48 hours after the last injection). In addition, in experiment [2] (after further regimen of 3 treatments), the “P value, decrease in mean clinical score vs untreated” value was determined as 0.001. Also, the “P value, decrease in mean clinical score vs control-treated” value in experiment [2] (after further regimen of 3 treatments, Pluronic F-68 control) is recorded as 0.03. The “day of first complete clinical remission” value in experiment [2] (after primary immunization (3 days after initial treatment)) came out at 47 days. Further, the clinically normal mammals in experiment [2] (by day 55 after primary immunization) worked out at 100%. Besides, the “lag of remission in untreated or control-treated groups behind n-docosanol-treated group” value in experiment [2] (complete clinical remission) lay in the range of 8 to 9 days. In addition, in experiment [2] (panel B of FIG. 3), the “occurrence of remission from CIA” value is reported as “hastened the occurrence of remission from CIA”.

For the compound `CCCCCCCCCCCCCCCCCCCCCCCCO` [tetracosanol], in experiment [3], the “physical performance of athletes” value was “improved physical performance of athletes”.

For `CCCCCCCCCCCCCCCCCCCCCCCCCCCCCCO` [1-triacontanol], the anti-inflammatory effectiveness entry in experiment [4] was “the aerosol carrier destroyed the effect of triacontanol”. In experiment [3], the “physical performance of athletes” value is listed as “improved physical performance of athletes”. Also, in experiment [5], the plant growth activity entry is listed as “stimulates the growth of plants”.

Turning to `CCCCCCCCCCCCCCCCCCCCCCCCCCO` [hexacosanol], the “physical performance of athletes” value in experiment [3] is listed as “improved physical performance of athletes”.

`CCCCCCCCCCCCCCCCCCCCCCCCCCCCCCCCO` [C-32]: the plant growth activity result in experiment [5] is “do not possess such physiological activity, or at least have very much less physiological activity in plant growth”.

Consider `Cc1cn([C@H]2C[C@H](N=[N+]=[N-])[C@@H](CO)O2)c(=O)[nH]c1=O` [AZT, reference compound], for which the Plaques/culture in experiment [1] (0.5 μg/ml, 10^2 input) is on record as 34 ± 3 Plaques/culture; in experiment [1] (0.5 μg/ml, 10^3 input), 657 ± 24 Plaques/culture; in experiment [1] (5 μg/ml, 10^2 input) it was 43 ± 3 Plaques/culture; in experiment [1] (5 μg/ml, 10^3 input), 382 ± 59 Plaques/culture; in experiment [1] (50 μg/ml, 10^2 input), 23 ± 5 Plaques/culture; in experiment [1] (50 μg/ml, 10^3 input), 131 ± 10 Plaques/culture. Further, the Plaques/culture in experiment [1] (500 μg/ml, 10^2 input) came out at 5 ± 3 Plaques/culture; in experiment [1] (500 μg/ml, 10^3 input), 43 ± 6 Plaques/culture. The inhibition at 0.5 µg/mL amounted to 69% in experiment [1] (0.5 μg/ml, 10^2 input) and 14% in experiment [1] (0.5 μg/ml, 10^3 input). For the same compound, the inhibition at 5 µg/mL in experiment [1] (5 μg/ml, 10^2 input) is 60%; in experiment [1] (5 μg/ml, 10^3 input) it was 50%. Further, the inhibition at 50 µg/mL in experiment [1] (50 μg/ml, 10^2 input) turned out to be 79%; in experiment [1] (50 μg/ml, 10^3 input) it was 83%. Further, the inhibition at 500 µg/mL was determined as 95% in experiment [1] (500 μg/ml, 10^2 input) and 94% in experiment [1] (500 μg/ml, 10^3 input).

As to `CCCCCCCCCCCCCCCCCCCCCCCCCCCCO` [octacosanol], the “physical performance of athletes” value in experiment [3] is “improved physical performance of athletes”. For the same compound, the plant growth activity entry in experiment [5] is listed as “do not possess such physiological activity, or at least have very much less physiological activity in plant growth”.
